Assay results: patent US11098053B2, “Enhanced osteogenic activity of daidzein analogs on human mesenchymal stem cells” (THE ADMINISTRATORS OF THE TULANE EDUCATIONAL FUND, priority 2013, dated 2021)
“Also recorded” adds a separate entry of the source.

Tested on: Human bone marrow derived mesenchymal stem cells (MSCs)
Assay: Osteogenic differentiation of MSCs (Alizarin Red calcium deposition)
Details: for osteogenic activity (structure-activity summary, in words): donor MSCs; for osteogenic activity (structure-activity summary, in words) / osteogenesis averaged over all three donors, relative to vehicle treated MSCs / cytotoxicity to donor MSCs: 1 μM; for induction category of osteogenic differentiation (no, low, high induction): screen, MSCs from one donor (Donor 1), analogs and daidzein 1 μM, estrogen 10 nM; for cytotoxicity to donor MSCs: MSCs from three donors (toxic in Donor 2 and Donor 3)

| Structure (SMILES) | osteogenic activity (structure-activity summary, in words) (14 days) | induction category of osteogenic differentiation (no, low, high induction) (14 days) | also measured |
| --- | --- | --- | --- |
| CCOc1ccc2c(=O)c(-c3ccc(O)cc3)coc2c1 [2b, 7-Ethoxy-3-(4-hydroxyphenyl)-4H-chromen-4-one] | modest osteogenic activity |  |  |
| CCCCOc1ccc2c(=O)c(-c3ccc(O)cc3)coc2c1 [2e, 7-Butoxy-3-(4-hydroxyphenyl)-4H-chromen-4-one] | marked enhancement; also recorded: over two-fold increase | high inducers | osteogenesis averaged over all three donors, relative to vehicle treated MSCs (14 days): 2.3±0.33 |
| CC(C)COc1ccc2c(=O)c(-c3ccc(O)cc3)coc2c1 [2f, 3-(4-Hydroxyphenyl)-7-isobutoxy-4H-chromen-4-one] | marked enhancement | high inducers | differentiation at day 7 (day 7): enhanced differentiation at day 7; IC50 (analog concentration required to achieve 1.5 fold relative bone differentiation) (donor 3, 1 nM-1 μM, 14 days): 1.38 μM; IC50 (read-out: IC50 averaged among the three donors, mean of three donors, 14 days): 504 nM; osteogenesis averaged over all three donors, relative to vehicle treated MSCs (14 days): 1.8±0.48 |
| CC1(C)C=Cc2cc3c(cc2O1)OCC(c1ccc(O)cc1)C3 (centres unmarked) [compound 10, 4-(8,8-Dimethyl-2,3,4,8-tetrahydropyrano[3,2-g]chromen-3-yl)phenol] |  |  | osteogenesis averaged over all three donors, relative to vehicle treated MSCs (14 days): 2.2±0.19 |
| CCCCCCOc1ccc2c(=O)c(-c3ccc(O)cc3)coc2c1 [2h, 7-Hexyloxy-3-(4-hydroxyphenyl)-4H-chromen-4-one] | marked enhancement | high inducers | osteogenesis averaged over all three donors, relative to vehicle treated MSCs (14 days): 2.0±0.48 |
| CCCCOc1ccc2c(c1)OCC(c1ccc(O)cc1)C2 (centres unmarked) [compound 9, 4-(7-Butoxychroman-3-yl)phenol] | no osteogenic activity |  |  |
| COc1ccc(C(=O)Nc2ccc(O)cc2)c(OC)c1 [compound 11, N-(4-Hydroxyphenyl)-2,4-dimethoxybenzamide] | not active at all |  |  |
| COc1ccc(NC(=O)c2ccc(OC)cc2OC)cc1 [12a, 2,4-Dimethoxy-N-(4-methoxyphenyl)benzamide] | strong osteogenic activity | high inducers |  |
| O=c1c(-c2ccc(O)cc2)coc2cc(OCCN3CCCCC3)ccc12 [2i, 3-(4-Hydroxyphenyl)-7-(2-(piperidin-1-yl)ethoxy)-4H-chromen-4-one] |  | high inducers | cytotoxicity to donor MSCs (14 days): cytotoxic; also recorded: potent toxicity to two donors |
| CCCOc1ccc2c(=O)c(-c3ccc(O)cc3)coc2c1 [2d, 3-(4-Hydroxyphenyl)-7-propoxy-4H-chromen-4-one] | modest osteogenesis |  | cytotoxicity to donor MSCs (14 days): cytotoxic; also recorded: toxicity to two donor cells |
| Cc1cc2c(ccc3c(=O)c(-c4ccc(O)cc4)coc32)o1 [compound 7, 3-(4-hydroxyphenyl)-8-methyl-4H-furo[2,3-h]chromen-4-one] | modest potential |  |  |
| COc1ccc(C(=O)Nc2ccc(OCC(C)C)cc2)c(OC)c1 [12b, N-(4-Isobutoxyphenyl)-2,4-dimethoxybenzamide] | not active at all |  |  |
| O=c1c(-c2ccc(O)cc2)coc2cc(OCCN3CCCC3)ccc12 [2j, 3-(4-Hydroxyphenyl)-7-(2-(pyrrolidin-1-yl)ethoxy)-4H-chromen-4-one] | no osteogenic effect |  |  |
| CN(C)CCOc1ccc2c(=O)c(-c3ccc(O)cc3)coc2c1 [2k, 7-(2-(Dimethylamino)ethoxy)-3-(4-hydroxyphenyl)-4H-chromen-4-one] | no osteogenic effect |  |  |
